Test results from the NIST ThermoML archive (doi:10.1021/je800463k).
± gives the expanded uncertainty stated by the source.

Experiment: mn = molality of the nth substance listed, in mol/kg
Conditions: 101 kPa, Liquid; for mass density: Pycnometric method; for electrical conductivity: Frequency=0.001 MHz, Alternating current cell with electrodes; for speed of sound: Frequency=2 MHz

SMILES: O=[N+]([O-])[O-].O=[N+]([O-])[O-].[Mg+2] [magnesium nitrate] + CO
- mass density (308.75 K, m1 = 0.4555): 824.82 ± 16 kg/m3
- mass density (308.75 K, m1 = 1.004): 877.82 ± 43 kg/m3
- mass density (308.85 K, m1 = 1.492): 927.12 ± 45 kg/m3
- mass density (309.1 K, m1 = 0.0082): 775.87 ± 0.89 kg/m3
- mass density (309.4 K, m1 = 0.1047): 789.92 ± 6.4 kg/m3
- mass density (309.75 K, m1 = 0.0545): 782.89 ± 2.5 kg/m3
- mass density (309.75 K, m1 = 0.881): 863.28 ± 35 kg/m3
- mass density (309.9 K, m1 = 0.2776): 806.88 ± 12 kg/m3
- mass density (309.95 K, m1 = 1.259): 904.15 ± 48 kg/m3
- mass density (310.1 K, m1 = 0.782): 861.14 ± 32 kg/m3
- mass density (310.2 K, m1 = 0.0667): 784.14 ± 3 kg/m3
- mass density (310.3 K, m1 = 1.71): 944.04 ± 61 kg/m3
- mass density (310.4 K, m1 = 0.4024): 818.47 ± 15 kg/m3
- mass density (310.45 K, m1 = 0.6276): 841.27 ± 24 kg/m3
- mass density (310.65 K, m1 = 0.4555): 823.17 ± 19 kg/m3
- mass density (310.7 K, m1 = 1.004): 876 ± 28 kg/m3
- mass density (311.55 K, m1 = 1.875): 953.58 ± 57 kg/m3
- mass density (311.6 K, m1 = 0.0082): 773.44 ± 0.91 kg/m3
- mass density (311.7 K, m1 = 0.0667): 782.46 ± 4.3 kg/m3
- mass density (311.9 K, m1 = 0.881): 861.58 ± 35 kg/m3
- mass density (311.9 K, m1 = 1.259): 902.37 ± 52 kg/m3
- mass density (312 K, m1 = 0.1047): 787.42 ± 6.2 kg/m3
- mass density (312 K, m1 = 1.492): 924.32 ± 56 kg/m3
- mass density (312.1 K, m1 = 0.4024): 816.76 ± 14 kg/m3
- mass density (312.2 K, m1 = 0.4555): 821.41 ± 19 kg/m3
- mass density (312.25 K, m1 = 0.6276): 839.48 ± 26 kg/m3
- mass density (312.3 K, m1 = 0.0545): 780.41 ± 3 kg/m3
- mass density (312.45 K, m1 = 1.71): 942.18 ± 57 kg/m3
- mass density (312.5 K, m1 = 0.2776): 804.41 ± 12 kg/m3
- mass density (312.85 K, m1 = 0.782): 858.54 ± 40 kg/m3
- electrical conductivity (313.15 K, m1 = 0.0082): 0.1573 ± 0.0001 S/m
- electrical conductivity (313.15 K, m1 = 0.0545): 0.4382 ± 0.0001 S/m
- electrical conductivity (313.15 K, m1 = 0.0667): 0.4799 ± 0.0001 S/m
- electrical conductivity (313.15 K, m1 = 0.1047): 0.6326 ± 0.0001 S/m
- electrical conductivity (313.15 K, m1 = 0.2776): 1.215 ± 0.001 S/m
- electrical conductivity (313.15 K, m1 = 0.4024): 1.537 ± 0.001 S/m
- electrical conductivity (313.15 K, m1 = 0.4555): 1.625 ± 0.001 S/m
- electrical conductivity (313.15 K, m1 = 0.6276): 1.951 ± 0.001 S/m
- electrical conductivity (313.15 K, m1 = 0.782): 2.183 ± 0.001 S/m
- electrical conductivity (313.15 K, m1 = 0.881): 2.262 ± 0.001 S/m
- electrical conductivity (313.15 K, m1 = 0.9116): 2.287 ± 0.001 S/m
- electrical conductivity (313.15 K, m1 = 1.004): 2.39 ± 0.001 S/m
- electrical conductivity (313.15 K, m1 = 1.259): 2.502 ± 0.001 S/m
- electrical conductivity (313.15 K, m1 = 1.492): 2.545 ± 0.001 S/m
- electrical conductivity (313.15 K, m1 = 1.71): 2.587 ± 0.001 S/m
- electrical conductivity (313.15 K, m1 = 1.875): 2.567 ± 0.001 S/m
- speed of sound (313.15 K, m1 = 0.0082): 1059.8 ± 6.3 m/s
- speed of sound (313.15 K, m1 = 0.0545): 1066.6 ± 6.3 m/s
- speed of sound (313.15 K, m1 = 0.0667): 1067.2 ± 6.3 m/s
- speed of sound (313.15 K, m1 = 0.1047): 1072.3 ± 6.3 m/s
- speed of sound (313.15 K, m1 = 0.2776): 1090.3 ± 6.4 m/s
- speed of sound (313.15 K, m1 = 0.4024): 1099.9 ± 6.4 m/s
- speed of sound (313.15 K, m1 = 0.4555): 1105.5 ± 6.5 m/s
- speed of sound (313.15 K, m1 = 0.6276): 1123.8 ± 6.5 m/s
- speed of sound (313.15 K, m1 = 0.782): 1140.7 ± 6.6 m/s
- speed of sound (313.15 K, m1 = 0.881): 1147.3 ± 6.6 m/s
- speed of sound (313.15 K, m1 = 0.9116): 1150.2 ± 6.6 m/s
- speed of sound (313.15 K, m1 = 1.004): 1164.5 ± 6.7 m/s
- speed of sound (313.15 K, m1 = 1.259): 1183.5 ± 6.8 m/s
- speed of sound (313.15 K, m1 = 1.492): 1210.2 ± 6.9 m/s
- speed of sound (313.15 K, m1 = 1.71): 1231.4 ± 7 m/s
- speed of sound (313.15 K, m1 = 1.875): 1240.4 ± 7 m/s
- viscosity (313.15 K, m1 = 0.0082): 0.4543 ± 0.026 mPa·s
- viscosity (313.15 K, m1 = 0.0545): 0.483 ± 0.027 mPa·s
- viscosity (313.15 K, m1 = 0.0667): 0.4662 ± 0.026 mPa·s
- viscosity (313.15 K, m1 = 0.1047): 0.5128 ± 0.028 mPa·s
- viscosity (313.15 K, m1 = 0.2776): 0.5885 ± 0.032 mPa·s
- viscosity (313.15 K, m1 = 0.4024): 0.6799 ± 0.036 mPa·s
- viscosity (313.15 K, m1 = 0.4555): 0.7062 ± 0.037 mPa·s
- viscosity (313.15 K, m1 = 0.6276): 0.8707 ± 0.044 mPa·s
- viscosity (313.15 K, m1 = 0.782): 0.9902 ± 0.049 mPa·s
- viscosity (313.15 K, m1 = 0.881): 0.9936 ± 0.049 mPa·s
- viscosity (313.15 K, m1 = 0.9116): 1.038 ± 0.051 mPa·s
- viscosity (313.15 K, m1 = 1.004): 1.124 ± 0.055 mPa·s
- viscosity (313.15 K, m1 = 1.259): 1.536 ± 0.073 mPa·s
- viscosity (313.15 K, m1 = 1.492): 1.837 ± 0.086 mPa·s
- viscosity (313.15 K, m1 = 1.71): 2.169 ± 0.1 mPa·s
- viscosity (313.15 K, m1 = 1.875): 2.45 ± 0.11 mPa·s
- mass density (313.3 K, m1 = 0.0667): 780.84 ± 3 kg/m3
- mass density (313.65 K, m1 = 1.004): 873.36 ± 28 kg/m3
- mass density (313.7 K, m1 = 1.875): 951.61 ± 48 kg/m3
- mass density (313.85 K, m1 = 0.4024): 815.07 ± 16 kg/m3
- mass density (313.95 K, m1 = 0.0545): 778.79 ± 3.5 kg/m3
- mass density (314 K, m1 = 0.0082): 771.07 ± 0.94 kg/m3
- mass density (314.25 K, m1 = 1.492): 922.37 ± 50 kg/m3
- mass density (314.4 K, m1 = 0.1047): 784.98 ± 6.3 kg/m3
- mass density (314.6 K, m1 = 1.71): 940.19 ± 57 kg/m3
- mass density (314.7 K, m1 = 0.881): 858.85 ± 35 kg/m3
- mass density (314.8 K, m1 = 0.4555): 818.87 ± 18 kg/m3
- mass density (314.85 K, m1 = 1.259): 899.51 ± 52 kg/m3
- mass density (314.9 K, m1 = 0.6276): 836.88 ± 23 kg/m3
- mass density (315.1 K, m1 = 0.2776): 801.88 ± 11 kg/m3
- mass density (315.45 K, m1 = 0.4024): 813.41 ± 17 kg/m3
- mass density (315.65 K, m1 = 0.0667): 778.45 ± 3 kg/m3
- mass density (315.65 K, m1 = 0.782): 855.81 ± 40 kg/m3
- mass density (315.8 K, m1 = 1.875): 949.71 ± 56 kg/m3
- mass density (315.95 K, m1 = 0.1047): 783.38 ± 4.4 kg/m3
- mass density (316.35 K, m1 = 0.0545): 776.41 ± 3 kg/m3
- mass density (316.5 K, m1 = 0.4555): 817.2 ± 19 kg/m3
- mass density (316.6 K, m1 = 0.881): 857.07 ± 32 kg/m3
- mass density (316.6 K, m1 = 1.004): 870.6 ± 43 kg/m3
- mass density (316.65 K, m1 = 0.6276): 835.18 ± 24 kg/m3
- mass density (316.75 K, m1 = 1.259): 897.65 ± 54 kg/m3
- mass density (317.35 K, m1 = 0.2776): 799.43 ± 11 kg/m3
- mass density (317.35 K, m1 = 1.492): 919.48 ± 50 kg/m3
- mass density (317.5 K, m1 = 0.782): 854.04 ± 31 kg/m3
- mass density (317.8 K, m1 = 1.875): 947.68 ± 47 kg/m3
- mass density (317.85 K, m1 = 1.71): 937.24 ± 43 kg/m3
- speed of sound (318.15 K, m1 = 0.0082): 1044.1 ± 6.2 m/s
- speed of sound (318.15 K, m1 = 0.0545): 1045.1 ± 6.2 m/s
- speed of sound (318.15 K, m1 = 0.0667): 1051.1 ± 6.2 m/s
- speed of sound (318.15 K, m1 = 0.1047): 1056.1 ± 6.3 m/s
- speed of sound (318.15 K, m1 = 0.2776): 1074.8 ± 6.3 m/s
- speed of sound (318.15 K, m1 = 0.4024): 1083.3 ± 6.4 m/s
- speed of sound (318.15 K, m1 = 0.4555): 1089.9 ± 6.4 m/s
- speed of sound (318.15 K, m1 = 0.6276): 1108 ± 6.5 m/s
- speed of sound (318.15 K, m1 = 0.782): 1124.4 ± 6.5 m/s
- speed of sound (318.15 K, m1 = 0.881): 1131.9 ± 6.6 m/s
- speed of sound (318.15 K, m1 = 0.9116): 1134 ± 6.6 m/s
- speed of sound (318.15 K, m1 = 1.004): 1148.2 ± 6.6 m/s
- speed of sound (318.15 K, m1 = 1.259): 1167.6 ± 6.7 m/s
- speed of sound (318.15 K, m1 = 1.492): 1193.9 ± 6.8 m/s
- speed of sound (318.15 K, m1 = 1.71): 1216.4 ± 6.9 m/s
- speed of sound (318.15 K, m1 = 1.875): 1225.2 ± 6.9 m/s
- mass density (319.3 K, m1 = 0.881): 854.45 ± 39 kg/m3
- mass density (319.45 K, m1 = 1.004): 867.87 ± 43 kg/m3
- mass density (319.55 K, m1 = 1.259): 894.9 ± 54 kg/m3
- mass density (320.2 K, m1 = 1.492): 916.67 ± 57 kg/m3
- mass density (320.25 K, m1 = 0.782): 851.43 ± 22 kg/m3
- mass density (320.75 K, m1 = 1.875): 944.75 ± 47 kg/m3
- mass density (320.9 K, m1 = 1.71): 934.37 ± 42 kg/m3
- speed of sound (323.15 K, m1 = 0.0082): 1027.3 ± 6.1 m/s
- speed of sound (323.15 K, m1 = 0.0545): 1033.4 ± 6.2 m/s
- speed of sound (323.15 K, m1 = 0.0667): 1035.4 ± 6.2 m/s
- speed of sound (323.15 K, m1 = 0.1047): 1039.7 ± 6.2 m/s
- speed of sound (323.15 K, m1 = 0.2776): 1058.3 ± 6.3 m/s
- speed of sound (323.15 K, m1 = 0.4024): 1067.5 ± 6.3 m/s
- speed of sound (323.15 K, m1 = 0.4555): 1076.2 ± 6.3 m/s
- speed of sound (323.15 K, m1 = 0.6276): 1093.5 ± 6.4 m/s
- speed of sound (323.15 K, m1 = 0.782): 1108.6 ± 6.5 m/s
- speed of sound (323.15 K, m1 = 0.881): 1115.5 ± 6.5 m/s
- speed of sound (323.15 K, m1 = 0.9116): 1119.3 ± 6.5 m/s
- speed of sound (323.15 K, m1 = 1.004): 1133.8 ± 6.6 m/s
- speed of sound (323.15 K, m1 = 1.259): 1151.8 ± 6.6 m/s
- speed of sound (323.15 K, m1 = 1.492): 1177.5 ± 6.7 m/s
- speed of sound (323.15 K, m1 = 1.71): 1199 ± 6.8 m/s
- speed of sound (323.15 K, m1 = 1.875): 1209.5 ± 6.9 m/s
